# PubChem BioAssay AID1963826 (Molecular Pharmacology Branch, DTP, NCI, 2024)
# Test system: 926638-142-R-J1-PDC complex spheroid viability
# Experiment: Anticancer human tumor 926638-142-R-J1-PDC patient-derived endometrial carcinoma cell line growth inhibition [POLQ]
# Settings: for IC50: curve of first compound; for viability, T/C: stronger effect = lower value
# Outline: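 Complex spheroid viability model combining PDC tumour cells with endothelial (HUVEC) and MSC stromal cells. Novobiocin, ART-558 or RP6685 were tested singly and in combination with standard and investigational anticancer drugs. Each was titrated in half-log steps from near clinical Cmax, or from 10 microM where Cmax was unknown.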
# [1] = second compound 0.0316 µM, first compound 0.00316 µM
# [2] = second compound 0.0316 µM, first compound 0.01 µM
# [3] = second compound 0.0316 µM, first compound 0.0316 µM
# [4] = second compound 0.0316 µM, first compound 0.1 µM
# [5] = second compound 0.1 µM, first compound 0.00316 µM
# [6] = second compound 0.1 µM, first compound 0.01 µM
# [7] = second compound 0.1 µM, first compound 0.0316 µM
# [8] = second compound 0.1 µM, first compound 0.1 µM
# [9] = second compound 0.316 µM, first compound 0.00316 µM
# [10] = second compound 0.316 µM, first compound 0.01 µM
# [11] = second compound 0.316 µM, first compound 0.0316 µM
# [12] = second compound 0.316 µM, first compound 0.1 µM
# [13] = second compound 1 µM, first compound 0.00316 µM
# [14] = second compound 1 µM, first compound 0.01 µM
# [15] = second compound 1 µM, first compound 0.0316 µM
# [16] = second compound 1 µM, first compound 0.1 µM
# [17] = second compound 3.16 µM, first compound 0.00316 µM
# [18] = second compound 3.16 µM, first compound 0.01 µM
# [19] = second compound 3.16 µM, first compound 0.0316 µM
# [20] = second compound 3.16 µM, first compound 0.1 µM
# [21] = second compound 10 µM, first compound 0.00316 µM
# [22] = second compound 10 µM, first compound 0.01 µM
# [23] = second compound 10 µM, first compound 0.0316 µM
# [24] = second compound 10 µM, first compound 0.1 µM
# 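Further: spheroids exposed to drugs for one week before readout.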
# 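Wherever viability, T/C is given: percent viability relative to DMSO vehicle control wells set as 100%.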
smiles,measurement,setting,value
CC(=O)O[C@H]1C(=O)[C@@]2(C)[C@H]([C@H](OC(=O)c3ccccc3)[C@]3(O)C[C@H](OC(=O)[C@H](O)[C@@H](NC(=O)c4ccccc4)c4ccccc4)C(C)=C1C3(C)C)[C@]1(OC(C)=O)CO[C@@H]1C[C@@H]2O + Nc1ccc(C#CCN(C(=O)Cc2ncc(C(F)(F)F)cc2C(F)(F)F)c2ccc(F)cc2)nn1,IC50,second compound 0.0316 µM,433 nM
same,IC50,second compound 0.1 µM,1300 nM
same,IC50,second compound 0.316 µM,458 nM
same,IC50,second compound 1 µM,> 3000 nM
same,IC50,second compound 3.16 µM,1940 nM
same,IC50,second compound 10 µM,139 nM
same,"viability, T/C","second compound 0.0316 µM, first compound 0.00949 µM",85.1%
same,"viability, T/C","second compound 0.0316 µM, first compound 0.03 µM",62.4%
same,"viability, T/C","second compound 0.0316 µM, first compound 0.0949 µM",56.9%
same,"viability, T/C","second compound 0.0316 µM, first compound 0.3 µM",50.7%
same,"viability, T/C","second compound 0.0316 µM, first compound 0.949 µM",47.9%
same,"viability, T/C","second compound 0.0316 µM, first compound 3 µM",48%
same,"viability, T/C","second compound 0.1 µM, first compound 0.00949 µM",84.3%
same,"viability, T/C","second compound 0.1 µM, first compound 0.03 µM",76.3%
same,"viability, T/C","second compound 0.1 µM, first compound 0.0949 µM",58.2%
same,"viability, T/C","second compound 0.1 µM, first compound 0.3 µM",69.8%
same,"viability, T/C","second compound 0.1 µM, first compound 0.949 µM",51%
same,"viability, T/C","second compound 0.1 µM, first compound 3 µM",42.9%
same,"viability, T/C","second compound 0.316 µM, first compound 0.00949 µM",91.4%
same,"viability, T/C","second compound 0.316 µM, first compound 0.03 µM",72.3%
same,"viability, T/C","second compound 0.316 µM, first compound 0.0949 µM",57.5%
same,"viability, T/C","second compound 0.316 µM, first compound 0.3 µM",47.7%
same,"viability, T/C","second compound 0.316 µM, first compound 0.949 µM",50.9%
same,"viability, T/C","second compound 0.316 µM, first compound 3 µM",45.2%
same,"viability, T/C","second compound 1 µM, first compound 0.00949 µM",79.3%
same,"viability, T/C","second compound 1 µM, first compound 0.03 µM",71.3%
same,"viability, T/C","second compound 1 µM, first compound 0.0949 µM",57%
same,"viability, T/C","second compound 1 µM, first compound 0.3 µM",51.8%
same,"viability, T/C","second compound 1 µM, first compound 0.949 µM",50.7%
same,"viability, T/C","second compound 1 µM, first compound 3 µM",50.8%
same,"viability, T/C","second compound 3.16 µM, first compound 0.00949 µM",82.7%
same,"viability, T/C","second compound 3.16 µM, first compound 0.03 µM",65%
same,"viability, T/C","second compound 3.16 µM, first compound 0.0949 µM",53.6%
same,"viability, T/C","second compound 3.16 µM, first compound 0.3 µM",53.1%
same,"viability, T/C","second compound 3.16 µM, first compound 0.949 µM",52.8%
same,"viability, T/C","second compound 3.16 µM, first compound 3 µM",47.3%
same,"viability, T/C","second compound 10 µM, first compound 0.00949 µM",76.3%
same,"viability, T/C","second compound 10 µM, first compound 0.03 µM",60.7%
same,"viability, T/C","second compound 10 µM, first compound 0.0949 µM",50.4%
same,"viability, T/C","second compound 10 µM, first compound 0.3 µM",49%
same,"viability, T/C","second compound 10 µM, first compound 0.949 µM",46.9%
same,"viability, T/C","second compound 10 µM, first compound 3 µM",51.8%
Cn1ncnc1[C@H]1c2n[nH]c(=O)c3cc(F)cc(c23)N[C@@H]1c1ccc(F)cc1 + COC1C(OC(N)=O)C(O)C(Oc2ccc3c(O)c(NC(=O)c4ccc(O)c(CC=C(C)C)c4)c(=O)oc3c2C)OC1(C)C,IC50,second compound 0.0316 µM,> 100 nM
same,IC50,second compound 0.1 µM,> 100 nM
same,IC50,second compound 0.316 µM,> 100 nM
same,IC50,second compound 1 µM,> 100 nM
same,IC50,second compound 3.16 µM,> 100 nM
same,IC50,second compound 10 µM,> 100 nM
same,"viability, T/C","second compound 0.0316 µM, first compound 0.000316 µM",84.5%
same,"viability, T/C","second compound 0.0316 µM, first compound 0.001 µM",83.7%
same,"viability, T/C",[1],81.7%
same,"viability, T/C",[2],86.5%
same,"viability, T/C",[3],71.5%
same,"viability, T/C",[4],79.5%
same,"viability, T/C","second compound 0.1 µM, first compound 0.000316 µM",106%
same,"viability, T/C","second compound 0.1 µM, first compound 0.001 µM",96.4%
same,"viability, T/C",[5],86%
same,"viability, T/C",[6],90.5%
same,"viability, T/C",[7],76.3%
same,"viability, T/C",[8],69.5%
same,"viability, T/C","second compound 0.316 µM, first compound 0.000316 µM",117%
same,"viability, T/C","second compound 0.316 µM, first compound 0.001 µM",86.4%
same,"viability, T/C",[9],72.7%
same,"viability, T/C",[10],78.5%
same,"viability, T/C",[11],69.7%
same,"viability, T/C",[12],60.3%
same,"viability, T/C","second compound 1 µM, first compound 0.000316 µM",85.5%
same,"viability, T/C","second compound 1 µM, first compound 0.001 µM",94.1%
same,"viability, T/C",[13],92.3%
same,"viability, T/C",[14],60.1%
same,"viability, T/C",[15],78.6%
same,"viability, T/C",[16],76.7%
same,"viability, T/C","second compound 3.16 µM, first compound 0.000316 µM",68.5%
same,"viability, T/C","second compound 3.16 µM, first compound 0.001 µM",81.7%
same,"viability, T/C",[17],74.3%
same,"viability, T/C",[18],81.7%
same,"viability, T/C",[19],78.5%
same,"viability, T/C",[20],69.6%
same,"viability, T/C","second compound 10 µM, first compound 0.000316 µM",84.8%
same,"viability, T/C","second compound 10 µM, first compound 0.001 µM",90.2%
same,"viability, T/C",[21],77.6%
same,"viability, T/C",[22],81%
same,"viability, T/C",[23],82.4%
same,"viability, T/C",[24],76.6%
C=CCn1c(=O)c2cnc(Nc3ccc(N4CCN(C)CC4)cc3)nc2n1-c1cccc(C(C)(C)O)n1 + COC1C(OC(N)=O)C(O)C(Oc2ccc3c(O)c(NC(=O)c4ccc(O)c(CC=C(C)C)c4)c(=O)oc3c2C)OC1(C)C,IC50,second compound 0.0316 µM,494 nM
same,IC50,second compound 0.1 µM,445 nM
same,IC50,second compound 0.316 µM,414 nM
same,IC50,second compound 1 µM,339 nM
same,IC50,second compound 3.16 µM,277 nM
same,IC50,second compound 10 µM,470 nM
same,"viability, T/C",[1],106%
same,"viability, T/C",[2],95.1%
same,"viability, T/C",[3],93%
same,"viability, T/C",[4],85.3%
same,"viability, T/C","second compound 0.0316 µM, first compound 0.316 µM",54.1%
same,"viability, T/C","second compound 0.0316 µM, first compound 1 µM",41.6%
same,"viability, T/C",[5],102%
same,"viability, T/C",[6],105%
same,"viability, T/C",[7],90.7%
same,"viability, T/C",[8],80%
same,"viability, T/C","second compound 0.1 µM, first compound 0.316 µM",57.7%
same,"viability, T/C","second compound 0.1 µM, first compound 1 µM",32.2%
same,"viability, T/C",[9],88%
same,"viability, T/C",[10],86.1%
same,"viability, T/C",[11],78.3%
same,"viability, T/C",[12],87.4%
same,"viability, T/C","second compound 0.316 µM, first compound 0.316 µM",52.8%
same,"viability, T/C","second compound 0.316 µM, first compound 1 µM",40.7%
same,"viability, T/C",[13],84.4%
same,"viability, T/C",[14],98.5%
same,"viability, T/C",[15],93.3%
same,"viability, T/C",[16],85.2%
same,"viability, T/C","second compound 1 µM, first compound 0.316 µM",50.9%
same,"viability, T/C","second compound 1 µM, first compound 1 µM",37.1%
same,"viability, T/C",[17],93.6%
same,"viability, T/C",[18],104%
same,"viability, T/C",[19],89.1%
same,"viability, T/C",[20],70.9%
same,"viability, T/C","second compound 3.16 µM, first compound 0.316 µM",47.7%
same,"viability, T/C","second compound 3.16 µM, first compound 1 µM",37.7%
same,"viability, T/C",[21],98%
same,"viability, T/C",[22],109%
same,"viability, T/C",[23],91.3%
same,"viability, T/C",[24],80.5%
same,"viability, T/C","second compound 10 µM, first compound 0.316 µM",56.6%
same,"viability, T/C","second compound 10 µM, first compound 1 µM",37.6%
